Target: PTK2 (human) (UniProt Q05397)
Assay: radiometric filter-binding kinase assay, Kinase HotSpot
Settings: compound 0.5 µM; ATP 10 µM

**Q.** Which residual activity does the source give for `Nc1nc(Nc2ccc(S(N)(=O)=O)cc2)nn1C(=S)Nc1c(F)cccc1F` here?
**A.** The residual activity was 25.3%.

**Q.** Which residual activity does the source give for `Oc1ccc(-c2nc(-c3ccc(F)cc3)c(-c3ccncc3)[nH]2)cc1` here?
**A.** Its residual activity is 96.9%.

**Q.** For `CC(C)[C@H](CO)Nc1nc(Nc2cccc(Cl)c2)c2ncn(C(C)C)c2n1`, which residual activity is on record?
**A.** The residual activity was 85.9%.

**Q.** How did the residual activity turn out when `COc1cc2ncnc(Nc3ccc(F)c(Cl)c3)c2cc1OCCCN1CCOCC1` was run?
**A.** Its residual activity is 103%.

Target: CDK9 CCNK (human) (UniProt O75909+P50750)
Assay: as above
Settings: compound 0.5 µM; ATP 10 µM

**Q.** With `Nc1nc(Nc2ccc(S(N)(=O)=O)cc2)nn1C(=S)Nc1c(F)cccc1F` as the molecule, how does the residual activity read?
**A.** The residual activity was 7.46%.

**Q.** How did the residual activity turn out when `Oc1ccc(-c2nc(-c3ccc(F)cc3)c(-c3ccncc3)[nH]2)cc1` was run?
**A.** Its residual activity is 101%.

**Q.** Which residual activity does the source give for `CC(C)[C@H](CO)Nc1nc(Nc2cccc(Cl)c2)c2ncn(C(C)C)c2n1` here?
**A.** The residual activity was 63.6%.

**Q.** Which residual activity does the source give for `COc1cc2ncnc(Nc3ccc(F)c(Cl)c3)c2cc1OCCCN1CCOCC1` here?
**A.** Its residual activity is 99.3%.

Target: ADRBK2 (human) (UniProt P35626)
Sequence (P35626 whole entry, looked up): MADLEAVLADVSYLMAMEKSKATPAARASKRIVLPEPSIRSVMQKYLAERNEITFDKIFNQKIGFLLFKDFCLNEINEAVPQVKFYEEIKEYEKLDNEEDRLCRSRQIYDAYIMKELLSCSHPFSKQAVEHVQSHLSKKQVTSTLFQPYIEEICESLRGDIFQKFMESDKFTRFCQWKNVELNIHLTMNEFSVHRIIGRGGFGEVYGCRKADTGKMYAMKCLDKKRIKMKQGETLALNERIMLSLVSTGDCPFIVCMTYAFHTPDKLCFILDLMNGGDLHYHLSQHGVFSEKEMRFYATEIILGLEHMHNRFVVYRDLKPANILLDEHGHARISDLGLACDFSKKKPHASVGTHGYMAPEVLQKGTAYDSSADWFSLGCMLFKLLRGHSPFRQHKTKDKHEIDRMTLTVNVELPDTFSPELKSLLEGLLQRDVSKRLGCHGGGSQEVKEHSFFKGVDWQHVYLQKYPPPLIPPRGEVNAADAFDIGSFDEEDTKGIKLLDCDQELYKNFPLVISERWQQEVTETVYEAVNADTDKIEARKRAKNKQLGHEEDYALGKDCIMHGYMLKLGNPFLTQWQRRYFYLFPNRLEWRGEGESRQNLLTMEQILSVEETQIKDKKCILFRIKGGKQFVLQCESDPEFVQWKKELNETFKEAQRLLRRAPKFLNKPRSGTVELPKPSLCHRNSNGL
Assay: as above
Settings: compound 0.5 µM; ATP 10 µM

**Q.** For `Nc1nc(Nc2ccc(S(N)(=O)=O)cc2)nn1C(=S)Nc1c(F)cccc1F`, which residual activity is on record?
**A.** The residual activity was 88%.

**Q.** How did the residual activity turn out when `Oc1ccc(-c2nc(-c3ccc(F)cc3)c(-c3ccncc3)[nH]2)cc1` was run?
**A.** The residual activity was 99.3%.

**Q.** Which residual activity does the source give for `CC(C)[C@H](CO)Nc1nc(Nc2cccc(Cl)c2)c2ncn(C(C)C)c2n1` here?
**A.** The residual activity was 99.1%.

**Q.** With `COc1cc2ncnc(Nc3ccc(F)c(Cl)c3)c2cc1OCCCN1CCOCC1` as the molecule, how does the residual activity read?
**A.** Its residual activity is 97.9%.

Target: RPS6KA5 KD2 (human) (UniProt O75582)
Sequence (O75582 whole entry, looked up): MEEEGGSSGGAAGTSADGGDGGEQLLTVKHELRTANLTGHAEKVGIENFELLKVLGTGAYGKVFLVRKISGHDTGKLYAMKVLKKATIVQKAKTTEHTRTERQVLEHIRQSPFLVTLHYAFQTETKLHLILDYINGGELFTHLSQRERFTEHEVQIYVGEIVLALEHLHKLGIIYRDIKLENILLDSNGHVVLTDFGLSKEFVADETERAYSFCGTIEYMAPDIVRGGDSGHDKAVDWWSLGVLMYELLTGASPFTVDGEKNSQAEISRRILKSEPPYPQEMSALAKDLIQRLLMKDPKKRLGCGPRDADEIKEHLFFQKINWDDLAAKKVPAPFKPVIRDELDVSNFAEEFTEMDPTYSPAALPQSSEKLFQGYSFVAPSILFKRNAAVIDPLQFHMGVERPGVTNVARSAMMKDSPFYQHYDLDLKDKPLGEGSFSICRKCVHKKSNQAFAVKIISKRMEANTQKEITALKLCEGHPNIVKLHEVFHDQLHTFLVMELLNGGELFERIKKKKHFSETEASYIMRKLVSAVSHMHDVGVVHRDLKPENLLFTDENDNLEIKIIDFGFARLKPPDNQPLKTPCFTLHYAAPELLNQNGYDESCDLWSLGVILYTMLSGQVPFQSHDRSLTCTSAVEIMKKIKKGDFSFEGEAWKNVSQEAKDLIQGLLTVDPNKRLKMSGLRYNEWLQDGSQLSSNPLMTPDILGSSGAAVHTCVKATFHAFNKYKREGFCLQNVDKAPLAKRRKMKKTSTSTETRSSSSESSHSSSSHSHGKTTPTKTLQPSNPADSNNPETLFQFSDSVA
Assay: as above
Settings: compound 0.5 µM; ATP 10 µM

**Q.** With `Nc1nc(Nc2ccc(S(N)(=O)=O)cc2)nn1C(=S)Nc1c(F)cccc1F` as the molecule, how does the residual activity read?
**A.** Its residual activity is 68.1%.

**Q.** With `Oc1ccc(-c2nc(-c3ccc(F)cc3)c(-c3ccncc3)[nH]2)cc1` as the molecule, how does the residual activity read?
**A.** The residual activity was 107%.

**Q.** Which residual activity does the source give for `CC(C)[C@H](CO)Nc1nc(Nc2cccc(Cl)c2)c2ncn(C(C)C)c2n1` here?
**A.** Its residual activity is 100%.

**Q.** Which residual activity does the source give for `COc1cc2ncnc(Nc3ccc(F)c(Cl)c3)c2cc1OCCCN1CCOCC1` here?
**A.** Its residual activity is 100%.

Target: TAOK2 (human) (UniProt Q9UL54)
Sequence (Q9UL54 whole entry, looked up): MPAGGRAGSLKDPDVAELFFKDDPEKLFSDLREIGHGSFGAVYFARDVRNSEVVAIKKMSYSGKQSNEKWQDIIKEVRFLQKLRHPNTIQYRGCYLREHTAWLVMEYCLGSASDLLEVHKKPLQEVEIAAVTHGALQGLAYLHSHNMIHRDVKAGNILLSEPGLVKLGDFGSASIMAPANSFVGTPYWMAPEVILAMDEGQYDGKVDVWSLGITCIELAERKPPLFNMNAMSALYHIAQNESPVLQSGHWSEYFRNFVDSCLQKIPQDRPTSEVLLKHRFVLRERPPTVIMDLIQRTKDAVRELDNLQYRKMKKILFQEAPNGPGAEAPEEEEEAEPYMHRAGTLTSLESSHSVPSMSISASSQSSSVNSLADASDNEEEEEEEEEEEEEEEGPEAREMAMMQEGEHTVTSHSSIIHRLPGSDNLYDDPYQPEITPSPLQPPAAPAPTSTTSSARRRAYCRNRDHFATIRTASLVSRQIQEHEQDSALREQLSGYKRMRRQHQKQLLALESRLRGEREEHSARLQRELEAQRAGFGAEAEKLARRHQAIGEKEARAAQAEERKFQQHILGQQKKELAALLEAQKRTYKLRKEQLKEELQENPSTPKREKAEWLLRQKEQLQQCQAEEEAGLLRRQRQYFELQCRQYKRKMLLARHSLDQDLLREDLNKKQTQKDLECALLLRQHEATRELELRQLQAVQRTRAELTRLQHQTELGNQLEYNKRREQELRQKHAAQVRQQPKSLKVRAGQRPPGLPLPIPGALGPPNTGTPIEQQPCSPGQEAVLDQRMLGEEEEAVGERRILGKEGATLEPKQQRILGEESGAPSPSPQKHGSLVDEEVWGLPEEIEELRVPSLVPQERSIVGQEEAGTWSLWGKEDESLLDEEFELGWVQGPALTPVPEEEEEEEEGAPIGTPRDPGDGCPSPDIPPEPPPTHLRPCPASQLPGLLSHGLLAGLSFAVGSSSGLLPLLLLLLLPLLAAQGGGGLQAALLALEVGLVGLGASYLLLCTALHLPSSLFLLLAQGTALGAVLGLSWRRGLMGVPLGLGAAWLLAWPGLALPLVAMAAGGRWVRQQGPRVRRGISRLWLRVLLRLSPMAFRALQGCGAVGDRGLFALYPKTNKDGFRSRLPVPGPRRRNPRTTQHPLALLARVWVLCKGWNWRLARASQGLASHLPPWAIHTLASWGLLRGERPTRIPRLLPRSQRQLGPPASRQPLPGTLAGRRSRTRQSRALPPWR
Assay: as above
Settings: compound 0.5 µM; ATP 10 µM

**Q.** How did the residual activity turn out when `Nc1nc(Nc2ccc(S(N)(=O)=O)cc2)nn1C(=S)Nc1c(F)cccc1F` was run?
**A.** Its residual activity is 11.5%.

**Q.** How did the residual activity turn out when `Oc1ccc(-c2nc(-c3ccc(F)cc3)c(-c3ccncc3)[nH]2)cc1` was run?
**A.** The residual activity was 94.7%.

**Q.** How did the residual activity turn out when `CC(C)[C@H](CO)Nc1nc(Nc2cccc(Cl)c2)c2ncn(C(C)C)c2n1` was run?
**A.** The residual activity was 91.3%.

**Q.** How did the residual activity turn out when `COc1cc2ncnc(Nc3ccc(F)c(Cl)c3)c2cc1OCCCN1CCOCC1` was run?
**A.** Its residual activity is 106%.

Target: BRSK2 (human) (UniProt Q8IWQ3)
Sequence (Q8IWQ3 whole entry, looked up): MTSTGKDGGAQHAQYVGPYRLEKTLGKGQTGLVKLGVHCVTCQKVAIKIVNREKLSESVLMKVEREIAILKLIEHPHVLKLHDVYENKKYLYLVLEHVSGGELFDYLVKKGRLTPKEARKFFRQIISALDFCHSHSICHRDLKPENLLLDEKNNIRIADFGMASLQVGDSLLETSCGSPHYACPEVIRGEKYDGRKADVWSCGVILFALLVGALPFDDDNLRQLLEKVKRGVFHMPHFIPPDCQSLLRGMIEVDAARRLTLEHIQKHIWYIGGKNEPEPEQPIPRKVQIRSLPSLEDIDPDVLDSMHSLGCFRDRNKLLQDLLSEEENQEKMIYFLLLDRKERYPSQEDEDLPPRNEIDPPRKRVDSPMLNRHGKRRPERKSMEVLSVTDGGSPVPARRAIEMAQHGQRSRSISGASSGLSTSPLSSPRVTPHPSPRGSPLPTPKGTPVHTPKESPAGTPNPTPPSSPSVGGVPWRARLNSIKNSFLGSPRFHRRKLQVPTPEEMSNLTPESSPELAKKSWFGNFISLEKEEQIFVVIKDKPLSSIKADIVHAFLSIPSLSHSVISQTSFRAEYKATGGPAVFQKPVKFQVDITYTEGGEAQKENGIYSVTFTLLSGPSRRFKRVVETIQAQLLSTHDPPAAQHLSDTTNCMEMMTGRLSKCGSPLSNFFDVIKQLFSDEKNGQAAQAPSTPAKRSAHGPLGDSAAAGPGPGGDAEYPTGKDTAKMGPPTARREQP
Assay: as above
Settings: compound 0.5 µM; ATP 10 µM

**Q.** For `Nc1nc(Nc2ccc(S(N)(=O)=O)cc2)nn1C(=S)Nc1c(F)cccc1F`, which residual activity is on record?
**A.** The residual activity was 9.03%.

**Q.** How did the residual activity turn out when `Oc1ccc(-c2nc(-c3ccc(F)cc3)c(-c3ccncc3)[nH]2)cc1` was run?
**A.** Its residual activity is 101%.

**Q.** `CC(C)[C@H](CO)Nc1nc(Nc2cccc(Cl)c2)c2ncn(C(C)C)c2n1` was tested. Which residual activity did it give?
**A.** Its residual activity is 97.8%.

**Q.** `COc1cc2ncnc(Nc3ccc(F)c(Cl)c3)c2cc1OCCCN1CCOCC1` was tested. Which residual activity did it give?
**A.** The residual activity was 103%.

Target: PRKCB1 (human) (UniProt P05771)
Sequence (P05771 whole entry, looked up): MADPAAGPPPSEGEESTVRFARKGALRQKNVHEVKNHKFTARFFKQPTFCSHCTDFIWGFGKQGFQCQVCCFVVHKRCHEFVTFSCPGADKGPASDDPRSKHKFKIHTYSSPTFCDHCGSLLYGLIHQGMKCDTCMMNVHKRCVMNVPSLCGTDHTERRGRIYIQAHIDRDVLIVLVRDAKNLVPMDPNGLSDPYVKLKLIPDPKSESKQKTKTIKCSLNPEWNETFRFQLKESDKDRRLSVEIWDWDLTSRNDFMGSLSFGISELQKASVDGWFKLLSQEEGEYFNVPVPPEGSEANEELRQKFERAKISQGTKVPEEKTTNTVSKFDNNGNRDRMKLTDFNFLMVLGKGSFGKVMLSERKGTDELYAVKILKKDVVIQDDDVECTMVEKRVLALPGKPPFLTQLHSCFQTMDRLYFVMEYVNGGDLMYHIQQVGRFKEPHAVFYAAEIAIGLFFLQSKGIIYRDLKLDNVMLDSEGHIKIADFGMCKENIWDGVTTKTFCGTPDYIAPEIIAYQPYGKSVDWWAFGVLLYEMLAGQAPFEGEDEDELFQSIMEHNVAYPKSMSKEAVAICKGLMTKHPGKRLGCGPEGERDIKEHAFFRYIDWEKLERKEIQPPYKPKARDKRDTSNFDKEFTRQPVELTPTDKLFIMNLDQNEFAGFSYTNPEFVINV
Assay: as above
Settings: compound 0.5 µM; ATP 10 µM

**Q.** Which residual activity does the source give for `Nc1nc(Nc2ccc(S(N)(=O)=O)cc2)nn1C(=S)Nc1c(F)cccc1F` here?
**A.** The residual activity was 75.2%.

**Q.** For `Oc1ccc(-c2nc(-c3ccc(F)cc3)c(-c3ccncc3)[nH]2)cc1`, which residual activity is on record?
**A.** The residual activity was 63.7%.

**Q.** `CC(C)[C@H](CO)Nc1nc(Nc2cccc(Cl)c2)c2ncn(C(C)C)c2n1` was tested. Which residual activity did it give?
**A.** The residual activity was 102%.

**Q.** `COc1cc2ncnc(Nc3ccc(F)c(Cl)c3)c2cc1OCCCN1CCOCC1` was tested. Which residual activity did it give?
**A.** The residual activity was 95%.

Target: CDK1 CCNA2 (human) (UniProt P06493+P20248)
Sequence (P06493 whole entry, looked up): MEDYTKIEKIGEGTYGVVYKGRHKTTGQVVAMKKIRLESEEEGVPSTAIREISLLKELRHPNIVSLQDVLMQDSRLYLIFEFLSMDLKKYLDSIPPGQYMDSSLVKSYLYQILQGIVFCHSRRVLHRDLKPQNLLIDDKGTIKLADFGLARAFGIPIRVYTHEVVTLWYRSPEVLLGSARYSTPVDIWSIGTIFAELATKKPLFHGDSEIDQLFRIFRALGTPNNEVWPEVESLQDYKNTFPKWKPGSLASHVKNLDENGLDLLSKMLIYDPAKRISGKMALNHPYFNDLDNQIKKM
Sequence (P20248 whole entry, looked up): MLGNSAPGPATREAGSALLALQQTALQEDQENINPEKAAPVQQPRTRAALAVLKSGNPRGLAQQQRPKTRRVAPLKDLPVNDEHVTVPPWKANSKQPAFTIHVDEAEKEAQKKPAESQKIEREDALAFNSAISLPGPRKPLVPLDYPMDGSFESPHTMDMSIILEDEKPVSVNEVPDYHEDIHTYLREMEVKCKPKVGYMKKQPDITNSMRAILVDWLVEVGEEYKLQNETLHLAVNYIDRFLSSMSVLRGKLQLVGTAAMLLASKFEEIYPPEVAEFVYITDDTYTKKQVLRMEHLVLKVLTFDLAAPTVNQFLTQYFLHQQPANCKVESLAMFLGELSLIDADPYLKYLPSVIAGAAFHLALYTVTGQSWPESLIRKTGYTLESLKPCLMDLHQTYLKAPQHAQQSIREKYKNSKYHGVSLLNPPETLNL
Assay: as above
Settings: compound 0.5 µM; ATP 10 µM

**Q.** `Nc1nc(Nc2ccc(S(N)(=O)=O)cc2)nn1C(=S)Nc1c(F)cccc1F` was tested. Which residual activity did it give?
**A.** The residual activity was -0.154%.

**Q.** `Oc1ccc(-c2nc(-c3ccc(F)cc3)c(-c3ccncc3)[nH]2)cc1` was tested. Which residual activity did it give?
**A.** The residual activity was 90.9%.

**Q.** `CC(C)[C@H](CO)Nc1nc(Nc2cccc(Cl)c2)c2ncn(C(C)C)c2n1` was tested. Which residual activity did it give?
**A.** Its residual activity is 31.7%.

**Q.** With `COc1cc2ncnc(Nc3ccc(F)c(Cl)c3)c2cc1OCCCN1CCOCC1` as the molecule, how does the residual activity read?
**A.** Its residual activity is 101%.

Target: RAF1 (human) (UniProt P04049)
Assay: as above
Settings: compound 0.5 µM; ATP 10 µM

**Q.** `Nc1nc(Nc2ccc(S(N)(=O)=O)cc2)nn1C(=S)Nc1c(F)cccc1F` was tested. Which residual activity did it give?
**A.** Its residual activity is 110%.

**Q.** For `Oc1ccc(-c2nc(-c3ccc(F)cc3)c(-c3ccncc3)[nH]2)cc1`, which residual activity is on record?
**A.** Its residual activity is 25.8%.

**Q.** Which residual activity does the source give for `CC(C)[C@H](CO)Nc1nc(Nc2cccc(Cl)c2)c2ncn(C(C)C)c2n1` here?
**A.** The residual activity was 98.9%.

**Q.** `COc1cc2ncnc(Nc3ccc(F)c(Cl)c3)c2cc1OCCCN1CCOCC1` was tested. Which residual activity did it give?
**A.** Its residual activity is 90.9%.

Target: GRK7 (human) (UniProt Q8WTQ7)
Assay: as above
Settings: compound 0.5 µM; ATP 10 µM

**Q.** With `Nc1nc(Nc2ccc(S(N)(=O)=O)cc2)nn1C(=S)Nc1c(F)cccc1F` as the molecule, how does the residual activity read?
**A.** Its residual activity is 96.6%.

**Q.** How did the residual activity turn out when `Oc1ccc(-c2nc(-c3ccc(F)cc3)c(-c3ccncc3)[nH]2)cc1` was run?
**A.** The residual activity was 105%.

**Q.** `CC(C)[C@H](CO)Nc1nc(Nc2cccc(Cl)c2)c2ncn(C(C)C)c2n1` was tested. Which residual activity did it give?
**A.** Its residual activity is 88.8%.

**Q.** Which residual activity does the source give for `COc1cc2ncnc(Nc3ccc(F)c(Cl)c3)c2cc1OCCCN1CCOCC1` here?
**A.** The residual activity was 96.2%.

Target: SRPK2 (human) (UniProt P78362)
Assay: as above
Settings: compound 0.5 µM; ATP 10 µM

**Q.** `Nc1nc(Nc2ccc(S(N)(=O)=O)cc2)nn1C(=S)Nc1c(F)cccc1F` was tested. Which residual activity did it give?
**A.** The residual activity was 17.1%.

**Q.** With `Oc1ccc(-c2nc(-c3ccc(F)cc3)c(-c3ccncc3)[nH]2)cc1` as the molecule, how does the residual activity read?
**A.** The residual activity was 102%.
